Test results reported in ChEMBL document CHEMBL1909549, “Synthesis, pharmacophore modeling and in vitro activity of 10,11-dihydrodibenzo[b,f]oxepine-4-carboxamide derivatives as novel and potent antagonists of the prostaglandin EP4 receptor” (Bioorg Med Chem Lett, 2011).
pIC50: −log10 of the molar value. Activity calls are given as the source filed them. No cut-off for these calls is given here.

How the values were obtained:
Cytochrome P450 2D6 = Cytochrome P450 2D6 (Homo sapiens, UniProt P10635); assay: Inhibition of recombinant human CYP2D6 at 3 uM by fluorimetry; format: ADME; settings: recombinant enzyme
[1] = target: T1, Prostaglandin E2 receptor EP4 subtype (Homo sapiens, UniProt P35408); assay: Displacement of [3H]-PGE2 from human EP4 receptor expressed in HEK293 cells; format: cell-based
[2] = target: T1, Prostaglandin E2 receptor EP4 subtype; assay: Antagonist activity at human EP4 receptor expressed in HEK293 cells assessed as inhibition of PGE2-induced cAMP accumulation by bead-based proximity assay; format: functional, cell-based
Cytochrome P450 3A4 [3] = target: T2, Cytochrome P450 3A4 (Homo sapiens, UniProt P08684); assay: Inhibition of recombinant human CYP3A4 using diethoxyfluorescein as substrate at 3 uM by fluorimetry; format: ADME; settings: recombinant enzyme
Cytochrome P450 3A4 [4] = target: T2, Cytochrome P450 3A4; assay: Inhibition of recombinant human CYP3A4 using 7-benzyloxy-4-trifluoromethyl coumarin as substrate at 3 uM by fluorimetry; format: ADME; settings: recombinant enzyme
CYP2C9 = CYP2C9 (Homo sapiens, UniProt P11712); assay: Inhibition of recombinant human CYP2C9 at 3 uM by fluorimetry; format: ADME
[5] = target: Prostaglandin E2 receptor EP2 subtype (Homo sapiens, UniProt P43116); assay: Displacement of [3H]-PGE2 from human EP2 receptor expressed in HEK293 cells; format: cell-based
CYP2C19 = CYP2C19 (Homo sapiens, UniProt P33261); assay: (§1) Inhibition of recombinant human CYP2C19 at 3 uM by fluorimetry; format: ADME; settings: recombinant human CYP2C19
[6] = target: T1, Prostaglandin E2 receptor EP4 subtype; assay: Agonist activity at human EP4 receptor expressed in HEK293 cells assessed as potentiation of cAMP accumulation by bead-based proximity assay in absence of PGE2; format: functional, cell-based
Cytochrome P450 1A2 = target: T3, Cytochrome P450 1A2 (Homo sapiens, UniProt P05177); assay: Inhibition of recombinant human CYP1A2 at 3 uM by fluorimetry; format: ADME; settings: recombinant enzyme
T3 sequence (P05177 whole entry): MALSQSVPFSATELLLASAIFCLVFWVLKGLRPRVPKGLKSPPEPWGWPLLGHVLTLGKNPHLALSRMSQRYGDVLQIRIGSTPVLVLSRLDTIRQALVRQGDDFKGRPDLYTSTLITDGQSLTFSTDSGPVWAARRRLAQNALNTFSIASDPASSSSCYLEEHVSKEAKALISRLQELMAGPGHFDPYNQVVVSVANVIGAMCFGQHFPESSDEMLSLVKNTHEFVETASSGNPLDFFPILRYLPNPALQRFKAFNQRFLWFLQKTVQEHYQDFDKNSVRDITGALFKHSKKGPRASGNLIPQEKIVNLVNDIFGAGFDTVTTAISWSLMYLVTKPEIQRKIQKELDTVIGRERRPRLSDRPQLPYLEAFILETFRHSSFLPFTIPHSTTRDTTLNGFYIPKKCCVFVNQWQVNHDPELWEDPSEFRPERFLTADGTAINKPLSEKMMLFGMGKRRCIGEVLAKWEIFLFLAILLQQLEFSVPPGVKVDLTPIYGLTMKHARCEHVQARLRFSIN

Cytochrome P450 2C19 = Cytochrome P450 2C19 (Homo sapiens, UniProt P33261); assay: as §1; format: ADME; settings: recombinant enzyme, 3 µM
[7] = target: T1, Prostaglandin E2 receptor EP4 subtype; assay: Ratio of CJ-42794 IC50 to compound IC50 for human EP4 receptor expressed in HEK293 cells; format: cell-based

Prostaglandin E2 receptor EP2 subtype, sequence (P43116 whole entry): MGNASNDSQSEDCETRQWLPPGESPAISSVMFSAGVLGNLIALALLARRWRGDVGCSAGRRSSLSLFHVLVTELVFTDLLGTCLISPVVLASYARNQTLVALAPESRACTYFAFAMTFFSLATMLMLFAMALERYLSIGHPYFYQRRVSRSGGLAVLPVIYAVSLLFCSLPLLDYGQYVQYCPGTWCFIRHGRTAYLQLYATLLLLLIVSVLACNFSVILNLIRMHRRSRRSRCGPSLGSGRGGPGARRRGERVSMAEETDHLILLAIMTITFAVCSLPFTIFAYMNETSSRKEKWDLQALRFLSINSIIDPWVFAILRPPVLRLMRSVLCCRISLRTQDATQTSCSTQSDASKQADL
T1 sequence (P35408 whole entry): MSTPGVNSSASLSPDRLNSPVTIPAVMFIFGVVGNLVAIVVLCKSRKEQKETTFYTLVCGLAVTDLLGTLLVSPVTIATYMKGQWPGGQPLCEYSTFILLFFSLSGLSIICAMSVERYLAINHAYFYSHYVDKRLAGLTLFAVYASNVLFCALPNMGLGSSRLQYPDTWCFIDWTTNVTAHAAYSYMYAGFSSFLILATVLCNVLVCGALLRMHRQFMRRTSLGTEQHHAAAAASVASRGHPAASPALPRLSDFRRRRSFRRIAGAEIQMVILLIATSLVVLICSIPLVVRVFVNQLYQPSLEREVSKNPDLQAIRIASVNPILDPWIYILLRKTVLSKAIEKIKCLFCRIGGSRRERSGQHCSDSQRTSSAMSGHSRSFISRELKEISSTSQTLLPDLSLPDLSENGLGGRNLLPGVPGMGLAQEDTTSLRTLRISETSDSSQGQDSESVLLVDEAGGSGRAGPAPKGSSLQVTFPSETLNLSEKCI
T2 sequence (P08684 whole entry): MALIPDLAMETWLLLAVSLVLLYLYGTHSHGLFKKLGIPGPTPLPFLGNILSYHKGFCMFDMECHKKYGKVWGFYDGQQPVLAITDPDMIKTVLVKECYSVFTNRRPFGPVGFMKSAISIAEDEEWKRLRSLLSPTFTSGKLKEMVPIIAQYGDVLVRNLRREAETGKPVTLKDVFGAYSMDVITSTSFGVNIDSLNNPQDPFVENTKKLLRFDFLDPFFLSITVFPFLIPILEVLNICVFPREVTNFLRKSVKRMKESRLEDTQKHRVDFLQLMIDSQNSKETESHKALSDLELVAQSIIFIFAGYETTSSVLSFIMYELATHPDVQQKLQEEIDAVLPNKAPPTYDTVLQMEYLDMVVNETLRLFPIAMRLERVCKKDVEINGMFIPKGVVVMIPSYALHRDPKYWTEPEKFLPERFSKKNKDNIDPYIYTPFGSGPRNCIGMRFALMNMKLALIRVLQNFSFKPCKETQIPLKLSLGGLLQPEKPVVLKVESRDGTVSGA
Cytochrome P450 2D6, sequence (P10635 whole entry): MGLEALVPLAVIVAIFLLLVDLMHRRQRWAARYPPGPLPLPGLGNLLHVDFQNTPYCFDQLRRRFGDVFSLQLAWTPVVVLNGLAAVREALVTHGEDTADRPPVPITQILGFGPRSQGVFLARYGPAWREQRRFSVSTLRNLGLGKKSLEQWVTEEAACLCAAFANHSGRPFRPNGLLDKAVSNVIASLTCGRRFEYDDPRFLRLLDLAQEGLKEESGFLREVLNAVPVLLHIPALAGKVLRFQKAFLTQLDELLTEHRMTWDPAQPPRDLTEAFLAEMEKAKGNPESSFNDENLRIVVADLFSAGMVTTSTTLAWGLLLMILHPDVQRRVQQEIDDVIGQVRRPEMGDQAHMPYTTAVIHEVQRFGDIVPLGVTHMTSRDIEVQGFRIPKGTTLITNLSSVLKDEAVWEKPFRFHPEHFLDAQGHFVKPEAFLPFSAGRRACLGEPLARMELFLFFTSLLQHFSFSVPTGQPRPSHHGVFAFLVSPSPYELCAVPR
CYP2C9, sequence (P11712 whole entry): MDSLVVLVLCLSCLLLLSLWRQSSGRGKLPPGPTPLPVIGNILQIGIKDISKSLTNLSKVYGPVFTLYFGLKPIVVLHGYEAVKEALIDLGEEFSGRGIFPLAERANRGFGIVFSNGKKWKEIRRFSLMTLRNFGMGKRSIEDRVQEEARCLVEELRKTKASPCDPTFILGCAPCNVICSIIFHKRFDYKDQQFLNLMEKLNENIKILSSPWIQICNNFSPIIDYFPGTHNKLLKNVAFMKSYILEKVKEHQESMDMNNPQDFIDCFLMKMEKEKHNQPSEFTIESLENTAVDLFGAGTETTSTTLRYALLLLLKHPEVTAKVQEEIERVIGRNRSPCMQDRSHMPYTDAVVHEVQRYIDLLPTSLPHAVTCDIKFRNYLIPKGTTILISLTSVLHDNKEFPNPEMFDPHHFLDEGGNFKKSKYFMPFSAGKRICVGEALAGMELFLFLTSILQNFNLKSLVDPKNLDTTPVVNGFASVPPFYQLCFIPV
CYP2C19, sequence (P33261 whole entry): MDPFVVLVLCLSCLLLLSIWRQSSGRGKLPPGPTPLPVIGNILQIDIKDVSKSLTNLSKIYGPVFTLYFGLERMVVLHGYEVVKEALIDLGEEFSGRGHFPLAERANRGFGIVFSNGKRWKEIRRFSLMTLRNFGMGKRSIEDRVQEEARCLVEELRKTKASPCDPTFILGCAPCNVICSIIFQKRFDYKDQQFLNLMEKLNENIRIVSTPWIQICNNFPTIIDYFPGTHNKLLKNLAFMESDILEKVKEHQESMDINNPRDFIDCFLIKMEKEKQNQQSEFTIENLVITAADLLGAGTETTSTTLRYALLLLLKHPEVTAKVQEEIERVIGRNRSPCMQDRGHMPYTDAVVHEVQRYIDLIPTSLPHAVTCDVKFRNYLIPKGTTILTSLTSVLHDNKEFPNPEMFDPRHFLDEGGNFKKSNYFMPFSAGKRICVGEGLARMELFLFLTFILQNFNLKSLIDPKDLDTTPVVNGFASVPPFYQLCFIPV
Cytochrome P450 2C19, sequence (P33261 whole entry): as above

SMILES: O=C(O)c1ccc(C2(NC(=O)c3cccc4c3Oc3ccc(C(F)(F)F)cc3CC4)CC2)cc1
- inhibition (INH) (Cytochrome P450 2D6): Not Active
- pIC50 [1]: 7.57
- pIC50 [2]: 7.47
- inhibition (INH) (Cytochrome P450 3A4 [3]): Not Active
- inhibition (INH) (Cytochrome P450 3A4 [4]): Not Active
- inhibition at 3 µM (CYP2C9): 26%
- pIC50 [5]: < 6.00
- inhibition at 3 µM (CYP2C19): 13%
- Activity [6]: inactive
- inhibition (INH) (Cytochrome P450 1A2): Not Active

SMILES: C[C@H](NC(=O)c1cc(Cl)ccc1Oc1ccc(F)cc1)c1ccc(C(=O)O)cc1
- pIC50 [1]: 8.00
- pIC50 [2]: 7.89
- pIC50 [5]: < 6.00

SMILES: O=C(O)c1ccc(C2(NC(=O)c3cccc4c3Oc3cc(C(F)(F)F)ccc3CC4)CC2)cc1
- inhibition (INH) (Cytochrome P450 2D6): Not Active
- pIC50 [1]: 8.40
- pIC50 [2]: 6.00
- inhibition (INH) (Cytochrome P450 3A4 [3]): Not Active
- inhibition (INH) (Cytochrome P450 3A4 [4]): Not Active
- inhibition at 3 µM (CYP2C9): 11%
- pIC50 [5]: < 6.00
- inhibition (INH) (Cytochrome P450 2C19): Not Active
- Activity [6]: inactive
- inhibition (INH) (Cytochrome P450 1A2): Not Active

SMILES: C[C@H](NC(=O)c1cccc2c1Oc1ccc(C(F)(F)F)cc1CC2)c1ccc(C(=O)O)cc1
- inhibition (INH) (Cytochrome P450 2D6): Not Active
- pIC50 [1]: 7.20
- pIC50 [2]: 7.38
- inhibition (INH) (Cytochrome P450 3A4 [3]): Not Active
- inhibition (INH) (Cytochrome P450 3A4 [4]): Not Active
- inhibition at 3 µM (CYP2C9): 17%
- pIC50 [5]: < 6.00
- inhibition at 3 µM (CYP2C19): 11%
- Activity [6]: inactive
- inhibition (INH) (Cytochrome P450 1A2): Not Active

SMILES: C[C@H](NC(=O)c1cccc2c1Oc1cc(C(F)(F)F)ccc1CC2)c1ccc(C(=O)O)cc1
- inhibition (INH) (Cytochrome P450 2D6): Not Active
- pIC50 [1]: 8.70
- pIC50 [2]: 7.70
- inhibition (INH) (Cytochrome P450 3A4 [3]): Not Active
- Ratio IC50 [7]: 5
- inhibition (INH) (Cytochrome P450 3A4 [4]): Not Active
- inhibition at 3 µM (CYP2C9): 21%
- pIC50 [5]: < 6.00
- inhibition (INH) (Cytochrome P450 2C19): Not Active
- Activity [6]: inactive
- inhibition (INH) (Cytochrome P450 1A2): Not Active
